Consider 19 compounds from patent publication US20240109900A1, “AZABICYCLIC SHP2 INHIBITORS” (IRBM S.P.A., priority 2021, published 2024).

The IC50 is the concentration that gives 50% inhibition.

Assay [1] has as its system ERK phosphorylation in KYSE-520 cells. Put plainly: Phospho-ERK cellular assay. The class given is cell-based. As to conditions: Homo sapiens, KYSE-520, 2 h, KYSE-520 cells, 2 h at 37° C., phospho-ERK1/2 (Thr202/Tyr204) TR-FRET; read-out: PERK IC50. The method, then:
ERK phosphorylation was detected using the “Advanced phospho-ERK1/2 (Thr202/Tyr204)” TR-FRET kit (Cisbio, Cat #64AERPEG/H), following the manufacturer reagents and instructions.
Briefly, 20.000/well KYSE-520 cells (DSMZ ACC 371) were plated in 6 μL RPMI-1640 (Invitrogen) growth medium, into 384 white low-volume high base TC microplates (Greiner). After an overnight incubation, cells were treated with DMSO serial diluted compounds and incubated for 2 h at 37° C. After incubation, 2 μL/well of 4×Lysis Buffer (Cisbio 64KL1FDF), were added and incubated with cells for 30 min on gentle shaking. Finally, lysates were added with 2 μL/well of Eu cryptate (donor) and D2 (acceptor) conjugated antibodies (as provided by the Cisbio kit #64AERPEG/H) diluted 1:100 in Detection Buffer (as provided by the Cisbio kit #64AERPEG/H). Plates were then sealed and incubated at room temperature in the dark. After an overnight incubation, the TR-FRET signal was detected on a suitable reader (Envision, PerkinElmer). The lower the TR-FRET signal the higher the higher the SHP2 inhibition in cells.
The activity of each compound dilution was calculated as percentage between vehicle DMSO treated cells and no cells, 0% inhibition and 100% inhibition respectively. The percentage activity is fitted against the compound dilutions with a four-parameter logistic regression. The inflection point (i.e. the concentration at which half-maximal inhibition is achieved) is the IC50.
(In general: In TR-FRET formats the signal depends on donor and acceptor labels being close together.)

Assay [2] has as its target SHP-2 enzyme (Met1-Leu525) (Homo sapiens (Human), UniProt Q06124). Put plainly: SHP2 inhibition enzymatic assay. Format: biochemical. As to conditions: 0.5 nM SHP-2 activated by 500 nM IRS1 peptide, 75 μM DiFMUP substrate; read-out: SHP2wt-IC50. The method, then:
The assay was performed as described in YP Chen et al, Nature (535)2016. Assay volume of 20 μL/well was assembled in 384 well black polystyrene low-binding microplates (Greiner), using the following buffer: 60 mM HEPES pH 7.2, 75 mM NaCl, 75 mM KCl, 1 mM EDTA pH 8, 0.05% tween-20, 5 mM DTT. The SHP-2 enzyme (synthetized by Origene, Met1-Leu525, cat #TP750155) was used at a final concentration of 0.5 nM. The enzyme was activated by 500 nM IRS1 peptide (sequence: H2N-LN(pY)IDLDLV(dPEG8)LST(pY)ASINFQK-amide SEQ ID No. 1) and incubated with 75 μM DiFMUP (Sigma) as substrate.
Briefly, DMSO serially diluted testing compounds were transferred to the bottom of the assay plate. SHP2 was then added together with the IRS1 peptide. 30 min post incubation, the DiFMUP substrate was added to the reaction and incubated 30 min at room temperature. Finally 5 μL of 160 μM bpV (Potassium bisperoxo[1,10-phenanthroline]oxovanadate [V], Sigma) were added to stop and quench the reaction. The fluorescence was detected by a microplate reader (Envision, PerkinElmer) according to the DiFMUP excitation and emission wavelength. The lower the fluorescence the higher the SHP2 inhibition. […] The percentage inhibition is fitted against the compound dilutions with a four-parameter logistic regression. The inflection point (i.e. the concentration at which half-maximal inhibition is achieved) is the IC50.

Sequence of SHP-2 enzyme (Met1-Leu525) (Q06124 1-525): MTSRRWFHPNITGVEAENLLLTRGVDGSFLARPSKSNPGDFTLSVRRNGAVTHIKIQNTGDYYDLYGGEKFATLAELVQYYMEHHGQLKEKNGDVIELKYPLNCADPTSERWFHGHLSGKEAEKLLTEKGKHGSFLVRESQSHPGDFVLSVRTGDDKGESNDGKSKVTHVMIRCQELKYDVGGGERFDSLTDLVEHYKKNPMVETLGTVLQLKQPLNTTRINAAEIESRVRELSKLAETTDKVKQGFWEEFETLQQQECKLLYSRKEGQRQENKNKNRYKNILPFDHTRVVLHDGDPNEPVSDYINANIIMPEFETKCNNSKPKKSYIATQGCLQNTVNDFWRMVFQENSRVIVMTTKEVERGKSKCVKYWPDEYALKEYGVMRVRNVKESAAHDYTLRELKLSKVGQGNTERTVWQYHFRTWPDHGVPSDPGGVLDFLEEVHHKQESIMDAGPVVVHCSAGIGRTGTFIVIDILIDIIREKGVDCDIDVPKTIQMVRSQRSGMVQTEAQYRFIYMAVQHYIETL

As to `Cc1cc(C2(CN)C3CCN(c4cnc5c(-c6cccc7c6CNC7=O)n[nH]c5n4)CC32)no1` (centres unmarked) [Example 19, 4-(6-(7-(aminomethyl)-7-(5-methylisoxazol-3-yl)-3-azabicyclo[4.1.0]heptan-3-yl)-1H-pyrazolo[3,4-b]pyrazin-3-yl)isoindolin-1-one], the IC50 in assay [1] is below 1000 nM; in assay [2], below 500 nM.

As to `Cc1cc(C2(CN)C3CCN(c4cnc5c(-c6ccc7scnc7c6)n[nH]c5n4)CC32)no1` (centres unmarked) [Example 20, (3-(3-(benzo[d]thiazol-5-yl)-1H-pyrazolo[3,4-b]pyrazin-6-yl)-7-(5-methylisoxazol-3-yl)-3-azabicyclo[4.1.0]heptan-7-yl)methanamine], the IC50 in assay [1] is below 1000 nM; in assay [2], below 500 nM.

On to `Cc1cc(C2(CN)C3CCN(c4cnc5c(-c6ccc(C)c7ncccc67)n[nH]c5n4)CC32)no1` (centres unmarked) [Example 21, (7-(5-methylisoxazol-3-yl)-3-(3-(8-methylquinolin-5-yl)-1H-pyrazolo[3,4-b]pyrazin-6-yl)-3-azabicyclo[4.1.0]heptan-7-yl)methanamine], for which the IC50 in assay [1] was below 1000 nM; in assay [2], below 500 nM.

With `COc1ccc(-c2n[nH]c3nc(N4CCC5C(C4)C5(CN)c4cc(C)on4)cnc23)c2cccnc12` (centres unmarked) [Example 22, (3-(3-(8-methoxyquinolin-5-yl)-1H-pyrazolo[3,4-b]pyrazin-6-yl)-7-(5-methylisoxazol-3-yl)-3-azabicyclo[4.1.0]heptan-7-yl)methanamine], the figures for the IC50 in assay [1] and in assay [2] were below 1000 nM and below 500 nM, respectively.

For `Cc1cc(C2(CN)C3CCN(c4cnc5c(-c6cccc7cnccc67)n[nH]c5n4)CC32)no1` (centres unmarked) [Example 23, (3-(3-(isoquinolin-5-yl)-1H-pyrazolo[3,4-b]pyrazin-6-yl)-7-(5-methylisoxazol-3-yl)-3-azabicyclo[4.1.0]heptan-7-yl)methanamine], the IC50 in assay [1] is below 1000 nM; in assay [2], below 500 nM.

On to `Cc1cc(C2(CN)C3CCN(c4cnc5c(-c6ccc7nn(C)cc7c6Cl)n[nH]c5n4)CC32)no1` (centres unmarked) [Example 24, (3-(3-(4-chloro-2-methyl-2H-indazol-5-yl)-1H-pyrazolo[3,4-b]pyrazin-6-yl)-7-(5-methylisoxazol-3-yl)-3-azabicyclo[4.1.0]heptan-7-yl)methanamine], for which the concentration for half-maximal inhibition (IC50) in assay [1] was below 1000 nM; in assay [2], below 500 nM.

As for `Cc1ccc2c(-c3n[nH]c4nc(N5CCC6C(C5)C6(CN)c5cc(C)on5)cnc34)cccc2n1` (centres unmarked) [Example 25, (7-(5-methylisoxazol-3-yl)-3-(3-(2-methylquinolin-5-yl)-1H-pyrazolo[3,4-b]pyrazin-6-yl)-3-azabicyclo[4.1.0]heptan-7-yl)methanamine], the results for the IC50 in assay [1] and in assay [2] were below 1000 nM and below 500 nM, respectively.

Consider `Cc1cc(C2(CN)C3CCN(c4cnc5c(-c6cccc7nn(C)cc67)n[nH]c5n4)CC32)no1` (centres unmarked) [Example 26, (3-(3-(2-methyl-2H-indazol-4-yl)-1H-pyrazolo[3,4-b]pyrazin-6-yl)-7-(5-methylisoxazol-3-yl)-3-azabicyclo[4.1.0]heptan-7-yl)methanamine], for which the IC50 is below 1000 nM in assay [1] and below 500 nM in assay [2].

For `Cc1cc(C2(CN)C3CCN(c4cnc5c(-c6ccnc7ccccc67)n[nH]c5n4)CC32)no1` (centres unmarked) [Example 27, (7-(5-methylisoxazol-3-yl)-3-(3-(quinolin-4-yl)-1H-pyrazolo[3,4-b]pyrazin-6-yl)-3-azabicyclo[4.1.0]heptan-7-yl)methanamine], the figures for the IC50 in assay [1] and in assay [2] were below 1000 nM and below 500 nM, respectively.

Turning to `COc1ncccc1-c1n[nH]c2nc(N3CCC4C(C3)C4(CN)c3cc(C)on3)cnc12` (centres unmarked) [Example 28, (3-(3-(2-methoxypyridin-3-yl)-1H-pyrazolo[3,4-b]pyrazin-6-yl)-7-(5-methylisoxazol-3-yl)-3-azabicyclo[4.1.0]heptan-7-yl)methanamine], the half-maximal inhibitory concentration (IC50) in assay [1] is above 5000 nM; in assay [2], below 500 nM.

In the case of `Cc1cc(C2(CN)C3CCN(c4cnc5c(-c6ccnc7c6OC[C@@H]6CCCN76)n[nH]c5n4)CC32)no1` (stereo partly drawn) [Example 29, (7-(5-methylisoxazol-3-yl)-3-(3-((S)-6a,7,8,9-tetrahydro-6H-pyrido[3,2-b]pyrrolo[1,2-d][1,4]oxazin-4-yl)-1H-pyrazolo[3,4-b]pyrazin-6-yl)-3-azabicyclo[4.1.0]heptan-7-yl)methanamine], the IC50 is above 5000 nM in assay [1] and 500 to 3000 nM in assay [2].

For the compound `Cc1cc(C2(CN)C3CCN(c4cnc5c(-c6ccc(F)c7ncccc67)n[nH]c5n4)CC32)no1` (centres unmarked) [Example 30, (3-(3-(8-fluoroquinolin-5-yl)-1H-pyrazolo[3,4-b]pyrazin-6-yl)-7-(5-methylisoxazol-3-yl)-3-azabicyclo[4.1.0]heptan-7-yl)methanamine], the IC50 in assay [1] was below 1000 nM; in assay [2], below 500 nM.

In the case of `Cc1cc(C2(CN)C3CCN(c4cnc5c(-c6ccnc(Cl)c6Cl)n[nH]c5n4)CC32)no1` (centres unmarked) [Example 31, (3-(3-(2,3-dichloropyridin-4-yl)-1H-pyrazolo[3,4-b]pyrazin-6-yl)-7-(5-methylisoxazol-3-yl)-3-azabicyclo[4.1.0]heptan-7-yl)methanamine], the half-inhibitory concentration (IC50) in assay [1] was below 1000 nM; in assay [2], below 500 nM.

As for `Cc1cc(C2(CN)C3CCN(c4cnc5c(-c6ccc(C#N)c7ncccc67)n[nH]c5n4)CC32)no1` (centres unmarked) [Example 32, 5-(6-(7-(aminomethyl)-7-(5-methylisoxazol-3-yl)-3-azabicyclo[4.1.0]heptan-3-yl)-1H-pyrazolo[3,4-b]pyrazin-3-yl)quinoline-8-carbonitrile], the figures for the IC50 in assay [1] and in assay [2] were below 1000 nM and below 500 nM, respectively.

In the case of `Cc1cc(C2(CN)C3CCN(c4cnc5c(-c6ccc(Cl)c7ncccc67)n[nH]c5n4)CC32)no1` (centres unmarked) [Example 33, (3-(3-(8-chloroquinolin-5-yl)-1H-pyrazolo[3,4-b]pyrazin-6-yl)-7-(5-methylisoxazol-3-yl)-3-azabicyclo[4.1.0]heptan-7-yl)methanamine], the IC50 in assay [1] is below 1000 nM; in assay [2] it was below 500 nM.

Take `Cc1cc(C2(CN)C3CCN(c4cnc5c(-c6ccc(Cl)c7cnccc67)n[nH]c5n4)CC32)no1` (centres unmarked) [Example 34, (3-(3-(8-chloroisoquinolin-5-yl)-1H-pyrazolo[3,4-b]pyrazin-6-yl)-7-(5-methylisoxazol-3-yl)-3-azabicyclo[4.1.0]heptan-7-yl)methanamine]: the IC50 in assay [1] was below 1000 nM; in assay [2] it was below 500 nM.

With `Cc1cc(C2(CN)C3CCN(c4cnc5c(-c6ccnc7cccnc67)n[nH]c5n4)CC32)no1` (centres unmarked) [Example 35, (3-(3-(1,5-naphthyridin-4-yl)-1H-pyrazolo[3,4-b]pyrazin-6-yl)-7-(5-methylisoxazol-3-yl)-3-azabicyclo[4.1.0]heptan-7-yl)methanamine], the IC50 lay in the range of 1000 to 5000 nM in assay [1] and 500 to 3000 nM in assay [2].

Take `Cc1cc(C2(CN)C3CCN(c4cnc5c(-c6ccnc(N)c6Cl)n[nH]c5n4)CC32)no1` (centres unmarked) [Example 36, 4-(6-(7-(aminomethyl)-7-(5-methylisoxazol-3-yl)-3-azabicyclo[4.1.0]heptan-3-yl)-1H-pyrazolo[3,4-b]pyrazin-3-yl)-3-chloropyridin-2-amine]: the values for the IC50 in assay [1] and in assay [2] were below 1000 nM and below 500 nM, respectively.

Turning to `Cc1cc([C@@]2(CN)[C@@H]3CCN(c4cnc5c(-c6ccc7c(c6)OC(F)(F)O7)n[nH]c5n4)C[C@@H]32)no1` [Example 37, ((1S,6R,7S)-3-(3-(2,2-difluorobenzo[d][1,3]dioxol-5-yl)-1H-pyrazolo[3,4-b]pyrazin-6-yl)-7-(5-methylisoxazol-3-yl)-3-azabicyclo[4.1.0]heptan-7-yl)methanamine], the figures for the IC50 in assay [1] and in assay [2] were 1000 to 5000 nM and below 500 nM, respectively.
